Data from PubChem BioAssay AID1963960 (Molecular Pharmacology Branch, DTP, NCI, 2024).

Test system: MDA-MB-468 spheroids with HUVEC/MSC, viability
Test: Anticancer human tumor MDA-MB-468 cell line growth inhibition [PI3K];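 note: spheroids exposed to agents for seven days before readout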;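 for viability, T/C: 100% = DMSO vehicle control viability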
Conditions: for IC50: curve of first compound; for viability, T/C: stronger effect = lower value
Procedure, shortened: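 Agents were dosed from a top concentration near clinical Cmax (otherwise 10 microM) in half-log decrements, alone or combined with PI3K inhibitors. The spheroids contain tumor cells plus endothelial (HUVEC) and MSC stroma; viability is measured.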

Cn1ncc(Cl)c1-c1cc(C(=O)NC(CN)Cc2cccc(F)c2)sc1Cl (configuration not stated) + Cc1nc(NC(=O)N2CCCC2C(N)=O)sc1-c1ccnc(C(C)(C)C(F)(F)F)c1
IC50 (second compound 0.0316 µM): 0.327 µM
IC50 (second compound 0.1 µM): 0.272 µM
IC50 (second compound 0.316 µM): 0.289 µM
IC50 (second compound 1 µM): 0.221 µM
IC50 (second compound 3.16 µM): 0.0895 µM
IC50 (second compound 10 µM): < 0.0316 µM
viability, T/C (second compound 0.0316 µM, first compound 0.0316 µM): 84.6%
viability, T/C (second compound 0.0316 µM, first compound 0.1 µM): 78.8%
viability, T/C (second compound 0.0316 µM, first compound 0.316 µM): 37.8%
viability, T/C (second compound 0.0316 µM, first compound 1 µM): 33.1%
viability, T/C (second compound 0.0316 µM, first compound 3.16 µM): 29.8%
viability, T/C (second compound 0.0316 µM, first compound 10 µM): 0.69%
viability, T/C (second compound 0.1 µM, first compound 0.0316 µM): 78.1%
viability, T/C (second compound 0.1 µM, first compound 0.1 µM): 62.4%
viability, T/C (second compound 0.1 µM, first compound 0.316 µM): 41.2%
viability, T/C (second compound 0.1 µM, first compound 1 µM): 36%
viability, T/C (second compound 0.1 µM, first compound 3.16 µM): 27.5%
viability, T/C (second compound 0.1 µM, first compound 10 µM): 1.98%
viability, T/C (second compound 0.316 µM, first compound 0.0316 µM): 80.2%
viability, T/C (second compound 0.316 µM, first compound 0.1 µM): 76.9%
viability, T/C (second compound 0.316 µM, first compound 0.316 µM): 40.1%
viability, T/C (second compound 0.316 µM, first compound 1 µM): 30.1%
viability, T/C (second compound 0.316 µM, first compound 3.16 µM): 19.7%
viability, T/C (second compound 0.316 µM, first compound 10 µM): 3.34%
viability, T/C (second compound 1 µM, first compound 0.0316 µM): 91.3%
viability, T/C (second compound 1 µM, first compound 0.1 µM): 68%
viability, T/C (second compound 1 µM, first compound 0.316 µM): 39.3%
viability, T/C (second compound 1 µM, first compound 1 µM): 26.1%
viability, T/C (second compound 1 µM, first compound 3.16 µM): 19.3%
viability, T/C (second compound 1 µM, first compound 10 µM): 4.09%
viability, T/C (second compound 3.16 µM, first compound 0.0316 µM): 66.7%
viability, T/C (second compound 3.16 µM, first compound 0.1 µM): 43.6%
viability, T/C (second compound 3.16 µM, first compound 0.316 µM): 37.4%
viability, T/C (second compound 3.16 µM, first compound 1 µM): 20.8%
viability, T/C (second compound 3.16 µM, first compound 3.16 µM): 14.1%
viability, T/C (second compound 3.16 µM, first compound 10 µM): 2.32%
viability, T/C (second compound 10 µM, first compound 0.0316 µM): 38.3%
viability, T/C (second compound 10 µM, first compound 0.1 µM): 20.8%
viability, T/C (second compound 10 µM, first compound 0.316 µM): 20.6%
viability, T/C (second compound 10 µM, first compound 1 µM): 14.1%
viability, T/C (second compound 10 µM, first compound 3.16 µM): 7.72%
viability, T/C (second compound 10 µM, first compound 10 µM): 0.4%
